Data on two molecules can be found in patent US20260306502A1, “MITOCHONDRIAL UNCOUPLERS FOR TREATMENT OF METABOLIC DISEASES AND CANCER” (Mito Biopharma, LLC, priority 2022, published 2026).

The subject of series [1] is high-fat diet (HFD)-induced diabetic mouse model. The series can be described thus: Efficacy in high-fat diet (HFD)-induced diabetic/fatty liver mouse model. It counts as in vivo. The following applies: HFD mice, 3 weeks; for reversing fatty liver (liver steatosis, H&E histology): 5 mg/kg PO daily. The procedure: (§1) For HFD induced diabetic mouse model, C57Bl6 mice (male, n=6) were induced to obese and diabetic conditions by feeding high-fat diet (HFD, 60% fat calories, Research Diet, Inc. New Brunswick, NJ) for 3-4 months. […] During the 3-week period, the mice continued feeding HFD. […] The blood glucose levels were measured after an overnight fast, plasma insulin levels were tested after 5-6 hours fast, and the glycated HbA1c levels were determined in whole blood samples.
FIG. 15C and FIG. 15D show liver sections from mice fed HFD following 3 weeks of treatment with Compounds 25 and 64, respectively (P.O. dosing of 5 mg/kg, by daily gavage).
(§2) Experiments were similarly performed with other compounds, in either high-fat diet induced diabetes and fatty liver models, or in db/db mouse model, or in both, by daily oral gavage administration with low dosages.

Series [2] relates to HFD-induced diabetic mouse model and db/db mouse model. The experiment in a line: Efficacy in HFD-induced diabetic and db/db mouse models. It counts as in vivo. The following applies: for reducing blood glucose, blood insulin, and glycated HbA1c: 5 mg/kg once daily PO, db/db and HFD mice; for minimal effective dose: Mus musculus, both HFD and db/db models, oral daily gavage, read-out: Efficacious dosage to reduce blood glucose in mouse models, oral daily gavage. The procedure: as §1, §2

Series [3] concerns cultured mammalian cells, the NIH-3T3 cells, C2C12 cells, and other mammalian cell lines. The experiment in a line: Mitochondrial membrane potential (MMP) assay, TMRE (or DilC1(5)) staining, related to OCR induction. Format: cell-based. As to conditions: in words; TMRE and DilC1(5) staining. The method in brief: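 NIH-3T3, C2C12 and other mammalian cells in log phase treated with compound at various concentrations for 2 h, stained with 100 nM TMRE for 15 min, imaged by fluorescence microscopy; alternatively 50 nM DilC1(5), 15–30 min at 37 °C, far-red read. C10% TMRE = concentration leaving 10% MMP.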

Series [4] concerns C57Bl6 mice. The series can be described thus: Determination of acute toxicity. As to conditions: in words. The procedure:
Acute toxicity tests were performed on C57Bl6 mice, male, 6 weeks old, n=6. […] The tests were performed under fed condition, by oral gavage of 100-400 μL compound suspension according to the body weight to desired dosages (mg/kg). The mice were supplied with drinking water all through the testing time. […] MED was determined in diabetic and steatosis mouse models (Table 9).
Acute toxicity tests were performed on C57Bl6 mice, male, 6 weeks old, n=6 for each dose. […] The tests were performed under fed condition, by oral gavage of 100-400 μL compound suspension according to the body weight to desired dosages (mg/kg). The mice were supplied with drinking water all through the testing time. Mouse behaviors were monitored every 15-30 minutes.

Series [5] deals with CD-1 mice. The series can be described thus: Short-term (10-day) escalating toxicology study in CD-1 mice. The following applies: in words. It counts as in vivo, mouse. The procedure:
(§3) Clinical signs, body weights, food consumptions, rectal temperature, hematology, serum chemistry, plasma exposure, necropsies, tissue histopathology, were examined.
(§4) The compound was administered as a homogeneous suspension in 0.5% CMC+1% Tween80 in water in a volume of 10 mL/kg for oral administration. There were two arms in the study: 5 mice in the toxicology group and 5 mice in the toxicokinetic (TK) satellite group. Clinical signs were recorded twice daily. Body weight and food consumption were recorded once daily. Rectal temperature was recorded once every two days for a total of 5 times throughout the study. Necropsies were conducted at the termination of the study. Hematology, serum chemistry, plasma exposure, and tissue distribution were evaluated post 10th dosing in the TK satellite animals. Histopathology was examined in selected organs/tissues. Based on the outcomes of the toxicology parameters, NOAEL (no-observable-adverse-effect-level) and MTD (maximal tolerable dose) were determined.

Assay in series [6]: as above
The following applies: mouse, in vivo; oral gavage once daily, 10 days, male CD-1 mice; read-out: NOAEL (no-observable-adverse-effect-level). It counts as in vivo, mouse. The procedure: as §3, §4

Series [7] deals with C2C12 cells. The series can be described thus: Mitochondrial uncoupling activity by oxygen consumption rate (OCR) assay, Seahorse, in presence of oligomycin. It counts as cell-based, mouse. As to conditions: for minimal effective concentration: Mus musculus, C2C12, in the presence of oligomycin 2.5 μM, read-out: COCR-min: minimal concentration increasing OCR in the presence of oligomycin; for effect on oxygen consumption rate (OCR): in words. In a few lines:
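Mouse C2C12 myoblasts grown in 10% FBS medium had OCR measured on Seahorse XF96/XF24 sequentially: basal, after 2.5 μM oligomycin (final), then after compound at varying concentrations. Rotenone/antimycin A confirmed mitochondrial origin. COCR-min is the minimal compound concentration inducing OCR in the presence of oligomycin.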

Series [8] relates to LX-2 cells (human hepatic stellate cells). The series can be described thus: Inhibition of TGFβ-induced hepatic stellate cell differentiation into myofibroblast-like cells. It counts as cell-based. The following applies: TGFβ 10 ng/ml; for minimal effective concentration: Homo sapiens, LX-2, hepatic stellate cell differentiation to myofibroblast-like cells, 24 hours, read-out: Minimal inhibitory concentration; for inhibition of TGFβ-induced hepatic stellate cell differentiation: in words. The procedure:
Liver fibrosis is one hallmark of NASH. […] This process could be modeled in vitro using the hepatic stellate differentiation experiment. The human hepatic stellate LX-2 cells were cultured within DMEM (Dulbecco's Modified Eagle Media, pH 7.4) supplied with 2% fetal bovine serum, 4.5 g/l glucose and 2 mM glutamine to 100 percent confluence. […] Cellular morphology was then examined under a microscope. As shown in FIG. 16 to FIG. 17, hepatic stellate cells could be induced by TGF-beta to differentiate into myofibroblast-like cells.

Entries after “also recorded” stand apart in the source; their conditions may differ.

As usually defined, the NOAEL is the highest tested level that showed no adverse finding.

On to `COCCN(CCOC)Cc1cc(Cl)cc(C(=O)Nc2nc3ccc(C(F)(F)F)cc3s2)c1O` [Compound 25, 3-((bis(2-methoxyethyl)amino)methyl)-5-chloro-2-hydroxy-N-(6-(trifluoromethyl)benzo[d]thiazol-2-yl)benzamide], for which the “reversing fatty liver (liver steatosis, H&E histology)” value in series [1] was “highly efficacious in reversing fatty liver”. Besides, the “reducing blood triglyceride levels and non-HDL cholesterol levels” value in series [1] (5 mg/kg/day gavage) was “efficacious”. Also, in series [2], the “reducing blood glucose, blood insulin, and glycated HbA1c” value is recorded as “highly efficacious”; the minimal effective dose was 2.5 mg/kg. In series [3], the “effect on mitochondrial membrane potential (MMP)” value is “does not cause observable MMP reduction; also recorded: does not appear to reduce MMP over a wide concentration range; also recorded: without reducing MMP”. Besides, the “acute toxicity profile over DNP” value in series [4] is given as “drastically improved acute toxicity profiles over DNP”. For the same molecule, the “short-term safety profile over DNP” value in series [5] was “drastically improved short-term safety profiles”. The NOAEL at 240 h in series [6] amounted to 50 mg/kg/day. In series [7], the minimal effective concentration was less than 5 µM; the “effect on oxygen consumption rate (OCR)” value is “very robust OCR induction at 3.0, 6.0, and 9.0 μM; also recorded: effectively uncouples mitochondria (induces OCR”. Further, in series [8], the minimal effective concentration is 7.5 µM and the “inhibition of TGFβ-induced hepatic stellate cell differentiation” value was “effectively inhibit the differentiation process; also recorded: prevents TGFβ-induced differentiation of LX-2 cells”. For the same molecule, the “inhibition of TGFβ-induced hepatic stellate cell differentiation” value in series [8] (listed as Compounds 25) was “able to directly inhibit hepatic stellate cell (HSC) activation in vitro”.

Take `COCCOCc1cc(C(F)(F)F)cc2sc(NC(=O)c3cc(Cl)cc(CN4C[C@@H](C)O[C@@H](C)C4)c3O)nc12` [Compound 64, 5-chloro-3-((cis-2,6-dimethylmorpholino)methyl)-2-hydroxy-N-(4-((2-methoxyethoxy)methyl)-6-(trifluoromethyl)benzo[d]thiazol-2-yl)benzamide]: the “reversing fatty liver (liver steatosis, H&E histology)” value in series [1] is “highly efficacious in reversing fatty liver”. For the same molecule, in series [2], the “reducing blood glucose, blood insulin, and glycated HbA1c” value was “highly efficacious”; the minimal effective dose fell in the range of 1 to 2.5 mg/kg. Besides, in series [3], the “effect on mitochondrial membrane potential (MMP)” value was “minor loss of MMP; also recorded: without significantly decreasing MMP over a wide concentration range; also recorded: without drastically dissipating mitochondrial membrane potential”. The “acute toxicity profile over DNP” value in series [4] was “drastically improved acute toxicity profiles over DNP”. In addition, in series [5], the “short-term safety profile over DNP” value is “drastically improved short-term safety profiles”. For the same molecule, the NOAEL at 240 h in series [6] was determined as 40 mg/kg/day. Also, in series [7], the minimal effective concentration is less than 5 µM and the “effect on oxygen consumption rate (OCR)” value was “increases OCR”. Moreover, in series [8], the minimal effective concentration came out at 1 µM and the “inhibition of TGFβ-induced hepatic stellate cell differentiation” value is recorded as “effectively inhibit the differentiation process; also recorded: able to directly inhibit hepatic stellate cell (HSC) activation in vitro”. Further, the “inhibition of TGFβ-induced hepatic stellate cell differentiation” value in series [8] (listed as Compound64) is “prevents TGFβ-induced differentiation of LX-2 cells”.
